Data reported in US7989438B2, “Therapeutic compounds” (Istituto di Ricerche di Biologia Molecolare P. Angeletti SpA, priority 2007, dated 2011).
Where two headings read alike, the source gives them in different places.

System: HCV subgenomic replication
Assay: Cell based HCV replication assay (subgenomic replicon in Huh-7 cells, NS3 Cell-ELISA)
Conditions: activity ranges
Procedure, shortened: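 Huh-7 cells stably carrying the I377neo/NS3-3′/wt subgenomic replicon, seeded at 10^4 cells/well in DMEM/10% FCS and exposed to inhibitor for 96 h. NS3 expression was measured by Cell-ELISA (mAb 10E5/24, alkaline phosphatase, absorbance 405/620 nm), in duplicate. IC50 was fitted to the Hill equation, with background from parental Huh-7 cells.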

[1] = Table A, Huh-7 replicon cells, 96 hours, read-out: IC50 (nM), Inhibition of HCV subgenomic replication

SMILES | IC50 [1] | further results
CN1CCN(CCO)CCN(C)S(=O)(=O)NC(=O)c2ccc3c(C4CCCCC4)c4n(c3c2)CC1COc1ccccc1-4 [Example 103, (7R)-14-cyclohexyl-21-(2-hydroxyethyl)-18,24-dimethyl-7,8-dihydro-6H-7,11-(epiminoethanoiminoethanoiminothioiminomethano)-indolo[1,2-e][1,5]benzoxazocin-15-one 17,17-dioxide] | – | IC50 (Table 1, 16 membered macrocycles, read-out: IC50* (nM), Inhibition of HCV subgenomic replication): < 25 nM
CN1CCCC2COc3ccccc3-c3c(C4CCCCC4)c4ccc(cc4n3C2)C(=O)NS(=O)(=O)N(C)CC1 [Compound A25, (7R)-14-cyclohexyl-18,21-dimethyl-7,8-dihydro-6H-7,11-(propanoiminoethanoiminothioiminomethano)indolo[1,2-e][1,5]benzoxazocin-15-one 17,17-dioxide] | < 25 nM | –
CNC(=O)CN1CCN(C)CCN(C)S(=O)(=O)NC(=O)c2ccc3c(C4CCCCC4)c4n(c3c2)CC1COc1ccccc1-4 [Compound A30, 2-[(7R)-14-cyclohexyl-18,21-dimethyl-17,17-dioxido-15-oxo-7,8-dihydro-6H-7,11-(epiminoethanoiminoethanoiminothioiminomethano)indolo[1,2-e][1,5]benzoxazocin-24-yl]-N-methylacetamide] | 25 to 150 nM | –
COc1cccc2c1OCC1Cn3c-2c(C2CCCCC2)c2ccc(cc23)C(=O)NS(=O)(=O)N(C)CCN(C)CCN1C [Example 412, (7R)-14-cyclohexyl-4-methoxy-18,21,24-trimethyl-7,8-dihydro-6H-7,11-(epiminoethanoiminoethanoiminothioiminomethano)-indolo[1,2-e][1,5]benzoxazocin-15-one 17,17-dioxide] | – | IC50 (Table 4, various macrocycles, read-out: IC50* (nM), Inhibition of HCV subgenomic replication): < 25 nM
